Assay results taken from patent US5208227A, “Method, compositions, and compounds for modulating brain excitability” (priority 1991, dated 1993).
Like-named read-outs stand apart in the source and are kept apart here.

Assays:
[1] = system: GABA/benzodiazepine receptor-chloride ionopore complex (GBR complex); assay: modulation (inhibition) of [35S]TBPS binding; parameters: species or system rat (male Sprague-Dawley); MAXIMAL INHIBITION: unit not given here; details: for MAXIMAL INHIBITION: [35S]TBPS binding; for MAXIMAL INHIBITION / IC50 / +5 μM GABA IC50 / CONTROL IC50: rat cerebral cortex; for IC50 / +5 μM GABA IC50 / CONTROL IC50: inhibition of 2 nM [35S]TBPS binding
Method: These procedures were performed as follows:
In these FIGS, (.circle.) represents control without bicuculline; represents 0.5 micromolar bicuculline; (.quadrature.) represents 1.0 micromolar bicuculline; represents 2.0 micromolar bicuculline; and (Δ) represents 3.0 micromolar bicuculline.

[2] = system: GBR complex ([35S]TBPS site); assay: dissociation kinetics of [35S]TBPS in cortical P2 homogenates; assay type: binding, rat
Method: An assay was performed to determine the effect of pentobarbital on the dissociation kinetics of [^35 S]TBPS in rat cerebral cortical membranes. This assay was performed in accordance with the procedures outlined above. […] Dissociation of bound [^35 S]TBPS was initiated by 2 micromolar TBPS in all cases.

[3] = system: picrotoxin-induced convulsions in mice; parameters: key: NP: no protection; details: cited from earlier work
mice [4] = details: literature data; cited from earlier work
[5] = system: (+)bicuculline-induced seizures in mice; parameters: key: NP: no protection; details: cited from earlier work
[6] = system: strychnine-induced convulsions in mice; parameters: key to STR (strychnine) ED50: NP: no protection; details: cited from earlier work
[7] = system: maximal electroshock (tonic component) in mice; parameters: unit not given here; details: literature data; cited from earlier work
[8] = system: metrazol-induced convulsions in mice; parameters: key: NP: no protection; details: cited from earlier work
mice [9] = system: mice; parameters: unit not given beside the values; details: literature data; cited from earlier work
progesterone receptor = biological target: T1, progesterone receptor (Rattus norvegicus, UniProt Q63449); assay: [3H]R5020 binding to the progesterone receptor in rat uterus; details: FIG. 5
T1 sequence (Q63449 1-923): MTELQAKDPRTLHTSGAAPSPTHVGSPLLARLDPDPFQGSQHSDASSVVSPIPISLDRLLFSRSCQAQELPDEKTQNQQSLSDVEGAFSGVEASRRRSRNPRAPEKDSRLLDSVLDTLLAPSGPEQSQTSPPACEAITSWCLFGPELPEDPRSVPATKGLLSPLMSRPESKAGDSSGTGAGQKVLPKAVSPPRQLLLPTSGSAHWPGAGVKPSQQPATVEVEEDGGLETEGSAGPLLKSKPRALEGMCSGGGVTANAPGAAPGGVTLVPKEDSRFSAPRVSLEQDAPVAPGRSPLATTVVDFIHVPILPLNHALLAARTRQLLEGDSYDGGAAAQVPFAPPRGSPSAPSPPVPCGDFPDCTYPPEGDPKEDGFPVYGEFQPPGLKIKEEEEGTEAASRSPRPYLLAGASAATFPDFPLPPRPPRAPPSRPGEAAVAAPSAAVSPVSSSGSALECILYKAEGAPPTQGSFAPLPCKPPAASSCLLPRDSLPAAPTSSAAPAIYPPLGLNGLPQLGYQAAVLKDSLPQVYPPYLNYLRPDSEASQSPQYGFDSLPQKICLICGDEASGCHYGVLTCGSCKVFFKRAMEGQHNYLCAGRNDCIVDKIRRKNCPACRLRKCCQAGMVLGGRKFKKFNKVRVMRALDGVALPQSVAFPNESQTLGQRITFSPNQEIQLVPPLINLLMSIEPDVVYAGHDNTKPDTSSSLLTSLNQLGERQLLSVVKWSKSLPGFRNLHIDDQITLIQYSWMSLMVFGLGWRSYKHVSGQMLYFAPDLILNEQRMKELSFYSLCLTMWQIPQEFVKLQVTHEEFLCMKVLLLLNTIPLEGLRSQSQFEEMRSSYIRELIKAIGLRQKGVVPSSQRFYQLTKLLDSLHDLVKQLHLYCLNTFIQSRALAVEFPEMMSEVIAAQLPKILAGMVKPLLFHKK
From the text: The data plotted in FIG. 5 were obtained by performing assays in accordance with the procedures outlined above to determine the effect of progesterone metabolites and the progestin R5020 on the binding of [^3 H]R5020 to the progesterone receptor in rat uterus. All points on the plot of FIG. 5 represent the mean of triplicate determinations. The following compounds are those listed in FIG. 5: 5-alpha-pregnan-3-alpha-ol-20-one (DHP), 5-alpha-pregnan-3-alpha,21-diol-20-one (Th-DOC), and 5-beta-pregnane-3-alpha,20 diol (5 BETA).

[10] = system: premenstrual syndrome (PMS), PND, catamenial epilepsy patients; details: cited from earlier work
[11] = no added GABA (control), read-out: CONTROL IC50
[12] = read-out: +5 μM GABA IC50, +5 μM GABA
[13] = chemical convulsant administered i.v., Worms et al.

## CC(O)[C@H]1CC[C@H]2[C@@H]3CC[C@H]4C[C@H](O)CC[C@]4(C)[C@H]3CC[C@]12C (stereo partly drawn) [5α-PREGNAN-3α,20- DIOL ([…]), 5α-PREGNAN-3α,20- DIOL]
[1]
  MAXIMAL INHIBITION: 52
[1]; [11]
  IC50: 0.359 µM
[1]; [12]
  IC50: 0.082 µM

## CCCC(C)C1(CC)C(=O)NC(=O)NC1=O (stereo not drawn) [Na pentobarbital]
[2]; (**P < 0.01 vs control), alphaxalone 300 nM, 3a-OH-DHP 20 nM
  Total percentage of specific sites, rapidly dissociating (R): 48 ± 6 percentage
[2]; (*P < 0.05 vs control), alphaxalone 300 nM, 3a-OH-DHP 20 nM
  Total percentage of specific sites, slowly dissociating (S): 61 ± 6 percentage
[2]; [35S]TBPS dissociation, alphaxalone 300 nM, 3a-OH-DHP 20 nM
  k-1, rapidly dissociating component (R): 0.158 min⁻¹
[2]; [35S]TBPS dissociation, pentobarbital 30 nM [sic], alphaxalone 300 nM, 3a-OH-DHP 20 nM
  k-1, slowly dissociating component (S): 0.0186 min⁻¹
[2]; pentobarbital 30 micromolar, alphaxalone 300 nanomolar, 5-alpha-pregnan-3-alpha-hydroxy-20-one 20 nanomolar
  effect on dissociation mechanism/kinetics of [35S]TBPS (in words): induces a biphasic dissociation mechanism

## CCC1(c2ccccc2)C(=O)NC(=O)NC1=O [Phenobarbital]
[3]; Swinyard & Woodhead
  PICRO (picrotoxin) ED50: 28
Mice [4]
  Rotorod (RR) ED50: 69
[5]; Swinyard & Woodhead
  BIC (bicuculline) ED50: 38
[6]; Swinyard & Woodhead
  STR (strychnine) ED50: 95
[7]
  MES (maximal electroshock) ED50: 22
[8]; Swinyard & Woodhead
  MTZ (metrazol) ED50: 13
Mice [9]
  LD50: 265

## CC(O)[C@H]1CC[C@H]2[C@@H]3CC[C@@H]4C[C@H](O)CC[C@]4(C)[C@H]3CC[C@]12C (stereo partly drawn) [5-beta-pregnane-3-alpha,20 diol (5 BETA), 5-beta-pregnane-3-alpha,20 diol]
Progesterone receptor
  affinity for the progesterone receptor: lack of affinity

## C[C@]12CC[C@@H](O)C[C@@H]1CC[C@@H]1[C@@H]2CC[C@]2(C)[C@@H](O)CC[C@@H]12 [5α-ANDROSTAN-3α, 17β-DIOL]
[1]
  MAXIMAL INHIBITION: 100

## NC(=O)CCC/N=C(\c1ccc(Cl)cc1)c1cc(F)ccc1O [Progabide]
[3]; [13]
  PICRO (picrotoxin) ED50: 105
[5]; [13]
  BIC (bicuculline) ED50: 30
[6]; [13]
  STR (strychnine) ED50: 75
[7]
  MES (maximal electroshock) ED50: 75
[8]; [13]
  MTZ (metrazol) ED50: 30
Mice [9]
  LD50: 3000

## O=C1NC(=O)C(c2ccccc2)(c2ccccc2)N1 [Phenytoin]
[3]; Swinyard & Woodhead
  PICRO (picrotoxin) ED50: NP
[5]; Swinyard & Woodhead
  BIC (bicuculline) ED50: NP
[6]; at 55-100 mg/kg
  Maximum protection (strychnine): 50%
[8]; Swinyard & Woodhead
  MTZ (metrazol) ED50: NP
Mice [9]
  LD50: 230

## C[C@]12CC[C@@H](O)C[C@@H]1CC[C@@H]1[C@@H]2CC[C@]2(C)[C@@H](C(=O)CO)CC[C@@H]12 [5-alpha-pregnan-3-alpha,21-diol-20-one]
Progesterone receptor
  affinity for the progesterone receptor: lack of affinity

## C[C@]12CCC(=O)C[C@@H]1CC[C@@H]1[C@@H]2CC[C@]2(C)[C@@H](O)CC[C@@H]12 [5α-ANDROSTAN-17β- OL-3-ONE]
[1]
  MAXIMAL INHIBITION: 52
[1]; [11]
  IC50: > 100 µM

## CCCC(CCC)C(=O)O [Valproate]
[3]; Swinyard & Woodhead
  PICRO (picrotoxin) ED50: 387
[5]; Swinyard & Woodhead
  BIC (bicuculline) ED50: 360
[6]; Swinyard & Woodhead
  STR (strychnine) ED50: 293
[7]
  MES (maximal electroshock) ED50: 272
[8]; Swinyard & Woodhead
  MTZ (metrazol) ED50: 149
Mice [9]
  LD50: 1105

## C[C@]12CC[C@@H]3c4ccc(O)cc4CC[C@H]3[C@@H]1CC[C@@H]2O [17β-ESTRADIOL]
[1]
  MAXIMAL INHIBITION: 0
[1]; +5 μM GABA
  +5 μM GABA IC50: INACTIVE
[1]; no added GABA (control)
  CONTROL IC50: INACTIVE

## CC(=O)[C@H]1CC[C@H]2[C@@H]3CCC4=CC(=O)CC[C@]4(C)[C@H]3CC[C@]12C [PROGESTERONE]
[1]
  MAXIMAL INHIBITION: 100
[1]; in vitro
  potency/efficacy/affinity at the GBR complex (in words): very low potency
[1]; [11]
  IC50: > 100 µM
[10]; Maddocks et al.
  dose-response relationship in the treatment of PMS: no dose-response relationship exists
[10]; literature
  clinical effectiveness in PMS, PND, catamenial epilepsy: not consistently effective

## O=C1CN=C(c2ccccc2Cl)c2cc([N+](=O)[O-])ccc2N1 [Clonazepam]
[3]; Swinyard & Woodhead
  PICRO (picrotoxin) ED50: 0.043
Mice [4]
  Rotorod (RR) ED50: 0.184
[5]; Swinyard & Woodhead
  BIC (bicuculline) ED50: 0.0086
[6]; Swinyard & Woodhead
  STR (strychnine) ED50: NP
[7]
  MES (maximal electroshock) ED50: 93
[8]; Swinyard & Woodhead
  MTZ (metrazol) ED50: 0.009
Mice [9]
  LD50: > 6000

## C[C@]12CC[C@@H](O)C[C@@H]1CC[C@H]1[C@@H]3CC[C@H](C(=O)CO)[C@@]3(C)CC(=O)[C@@H]12 [5α-PREGNAN-3α-21- DIOL-11,20-DIONE]
[1]; [11]
  IC50: > 100 µM

## CC(=O)[C@H]1CC[C@H]2[C@@H]3CC=C4C[C@@H](O)CC[C@]4(C)[C@H]3CC[C@]12C [5-PREGNAN-3β-OL- 20-ONE (PREGNENOLONE), 5-PREGNAN-3β-OL- 20-ONE]
[1]
  MAXIMAL INHIBITION: 30
[1]; no added GABA (control)
  CONTROL IC50: INACTIVE
[1]; [12]
  IC50: > 100 µM

## NCCCC(=O)O [GABA, gamma-aminobutyric acid]
[1]; (+)-bicuculline 0.5-3.0 micromolar, FIGS. 1A and 1B
  shift in dose-response curve for [35S]TBPS binding induced by (+)-bicuculline: classical parallel shift

## CC(=O)[C@H]1CC[C@H]2[C@@H]3CC[C@H]4C[C@@H](O)CC[C@]4(C)[C@H]3CC[C@]12C [5α-PREGNAN-3β-OL- 20-ONE]
[1]
  MAXIMAL INHIBITION: 33
[1]; no added GABA (control)
  CONTROL IC50: INACTIVE
[1]; [12]
  IC50: > 100 µM

## CC(C)CCC[C@@H](C)[C@H]1CC[C@H]2[C@@H]3CC=C4C[C@@H](O)CC[C@]4(C)[C@H]3CC[C@]12C [CHOLESTEROL]
[1]
  MAXIMAL INHIBITION: 0
[1]; +5 μM GABA
  +5 μM GABA IC50: INACTIVE
[1]; no added GABA (control)
  CONTROL IC50: INACTIVE

## C[C@]12C[C@H](O)[C@H]3[C@@H](CCC4=CC(=O)CC[C@@]43C)[C@@H]1CC[C@@H]2C(=O)CO [4-PREGNEN-11β,21- DIOL-3,20-DIONE]
[1]
  MAXIMAL INHIBITION: 21
[1]; no added GABA (control)
  CONTROL IC50: INACTIVE
[1]; [12]
  IC50: > 100 µM
